Test [1] has as its target T1, HER2 kinase (Homo sapiens, UniProt P04626).
T1 construct: purchased Carna Biosciences 08-016
The test is described as follows: HER2 kinase assay (ULight/PT66 TR-FRET). The format is biochemical. As for the experimental part: (§1) Preparation of compound solution: The assay compound was dissolved in DMSO to form a 10 mM stock solution. Prior to use, the compound was diluted to 0.25 mM in DMSO (100 times the final concentration of the diluent) and then subjected to a 3-fold concentration gradient dilution to obtain a total of 11 concentrations. The solution was diluted with buffer to a diluent with 4× the final concentration when the compound was added.
(§2) HER2 kinase assay: buffer was prepared, and 40 nM 4×Her2 kinase solution, 40 μM 4×ATP solution, and 400 nM 4×ULight™-labeled Ploy GT Peptide substrate solution were prepared using the buffer. After the preparation was completed, the enzyme was mixed with different concentrations of compounds pre-prepared by dilution, and the mixture was left to stand at room temperature for 5 min. Each concentration was performed in duplicate. The corresponding substrate and ATP were added and the mixture was reacted at room temperature for 120 minutes (with negative and positive controls). After completion of the reaction, PT66 detection antibody was added. The mixture was incubated at room temperature for 60 minutes, and then detected by Envision.
(§3) Compound concentrations and corresponding inhibition rates were input into GraphPad Prism for processing to calculate IC50 values.
A general note: Time-resolved FRET reads energy transfer from a long-lived donor to a nearby acceptor.

Test [2] concerns the target EGFR^WT kinase (Homo sapiens, UniProt P00533). The test is described as follows: EGFR^WT kinase assay (ULight/PT66 TR-FRET). It is filed as biochemical. As for the experimental part: as §1
as §2, with “EGFR^WT kinase assay:” for “HER2 kinase assay:”, “prepared, and 3.48 nM 4×EGFR” for “prepared, and 40 nM 4×Her2”, “3.48 nM 4×EGFR kinase solution,” for “40 nM 4×Her2 kinase solution,”, “kinase solution, 600 μM 4×ATP” for “kinase solution, 40 μM 4×ATP”, “nM 4×ULight™-labeled JAK-1 (Try1023) Peptide substrate” for “nM 4×ULight™-labeled Ploy GT Peptide substrate”
as §3

The target of test [3] is Ba/F3 HER2 A775_G776insYVMA cells (Homo sapiens, UniProt P04626, DUP772-775, cells depend on it). The test is described as follows: Inhibition of cell proliferation, CTG method, Ba/F3 HER2 A775_G776insYVMA. It is filed as cell-based. To be noted: 72 hours, read-out: Ba/F3 HER2 A775-G776insYVMA IC50. From the text:
The present application examined the in vitro anti-proliferative activity of the compounds of the present disclosure against in vitro cultured BT474, NCI-N87, Ba/F3-EGFR-VIII and Ba/F3 HER2 A775_G776insYVMA and Ba/F3 EGFR D770_N771insSVD cell lines by CTG method.
Cell lines: BT474 (from the cell bank of Chinese Academy of Sciences), NCI-N87 (from ATCC), Ba/F3-EGFR-VIII, Ba/F3 HER2 A775_G776insYVMA and Ba/F3 EGFR D770_N771insSVD (all from KYinno Biotechnology (Beijing) Co., Ltd.); all of the above cells were cultured with RPMI1640 medium containing 10% fetal bovine serum, 100 U/mL penicillin, and 100 μg/mL streptomycin in the culture process.
1. The assay compound was dissolved with DMSO to form a stock solution and a gradient dilution was performed, followed by dilution with the corresponding medium to obtain a solution with 5-fold working concentration.
2. Cells in logarithmic growth phase were adjusted to specific cell densities by dilution with culture medium, and 80 μL of cell suspension was added to a 96-well plate, such that plating densities of cells of BT474, NCI-N87, Ba/F3-EGFR-VIII, Ba/F3 HER2 A775_G776insYVMA and Ba/F3 EGFR D770_N771insSVD were all 3000 cells/well. The cells of Ba/F3-EGFR-VIII, Ba/F3 HER2 A775_G776insYVMA and Ba/F3 EGFR D770_N771insSVD were used directly in the next step (treatment with compound), whereas the BT474 and NCI-N87 needed to be cultured overnight in a 37° C., 5% carbon dioxide gas incubator to adhere to the wall, and then treated with compounds.
3. […] The highest concentration of the assayed compound was 10 μM, 4-fold serial dilution, a total of 9 concentrations, and duplicate wells. A control group without compound was also set up.
4. The cells were cultured for another 72 hours, and then cell viability was detected by CTG assay kit. Signal values were read with a multifunctional plate reader (Perkin Elmer). GraphPad Prism software was used to create a dose-response curve and IC50 was calculated.

Chain of Ba/F3 HER2 A775_G776insYVMA cells (P04626 with tags, fused parts or gaps DUP772-775): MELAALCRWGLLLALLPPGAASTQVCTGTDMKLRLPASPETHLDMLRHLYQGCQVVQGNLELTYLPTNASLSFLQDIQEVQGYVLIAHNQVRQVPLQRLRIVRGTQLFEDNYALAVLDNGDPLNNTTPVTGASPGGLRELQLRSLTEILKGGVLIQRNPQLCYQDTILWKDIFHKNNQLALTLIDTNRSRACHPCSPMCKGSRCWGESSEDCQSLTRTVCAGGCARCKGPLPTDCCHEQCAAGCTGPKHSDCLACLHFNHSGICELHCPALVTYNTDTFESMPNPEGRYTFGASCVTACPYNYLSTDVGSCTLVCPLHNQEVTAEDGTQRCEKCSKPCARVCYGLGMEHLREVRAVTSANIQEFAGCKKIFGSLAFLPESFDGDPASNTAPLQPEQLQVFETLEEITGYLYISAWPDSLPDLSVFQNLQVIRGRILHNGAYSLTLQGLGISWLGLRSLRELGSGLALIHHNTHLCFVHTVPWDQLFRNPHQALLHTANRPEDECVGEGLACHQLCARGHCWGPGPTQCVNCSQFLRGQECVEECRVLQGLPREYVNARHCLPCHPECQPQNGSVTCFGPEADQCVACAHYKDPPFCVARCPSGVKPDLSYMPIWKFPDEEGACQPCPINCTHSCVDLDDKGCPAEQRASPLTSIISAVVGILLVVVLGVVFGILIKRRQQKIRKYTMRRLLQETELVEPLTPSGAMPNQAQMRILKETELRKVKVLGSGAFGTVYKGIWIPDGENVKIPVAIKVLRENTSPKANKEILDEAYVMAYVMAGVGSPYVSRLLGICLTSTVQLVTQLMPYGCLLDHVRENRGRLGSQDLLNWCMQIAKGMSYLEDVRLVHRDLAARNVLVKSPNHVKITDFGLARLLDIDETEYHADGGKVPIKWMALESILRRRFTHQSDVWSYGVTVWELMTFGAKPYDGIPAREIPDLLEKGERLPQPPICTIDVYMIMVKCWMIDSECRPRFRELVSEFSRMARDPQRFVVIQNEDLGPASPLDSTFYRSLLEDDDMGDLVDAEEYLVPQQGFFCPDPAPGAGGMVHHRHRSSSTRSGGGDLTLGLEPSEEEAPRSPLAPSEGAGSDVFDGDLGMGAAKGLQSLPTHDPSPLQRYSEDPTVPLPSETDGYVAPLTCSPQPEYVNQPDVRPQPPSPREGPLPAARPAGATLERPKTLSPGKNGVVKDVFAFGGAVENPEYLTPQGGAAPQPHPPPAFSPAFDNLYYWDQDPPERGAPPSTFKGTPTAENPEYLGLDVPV
Chain of EGFR^WT kinase (P00533 25-1210): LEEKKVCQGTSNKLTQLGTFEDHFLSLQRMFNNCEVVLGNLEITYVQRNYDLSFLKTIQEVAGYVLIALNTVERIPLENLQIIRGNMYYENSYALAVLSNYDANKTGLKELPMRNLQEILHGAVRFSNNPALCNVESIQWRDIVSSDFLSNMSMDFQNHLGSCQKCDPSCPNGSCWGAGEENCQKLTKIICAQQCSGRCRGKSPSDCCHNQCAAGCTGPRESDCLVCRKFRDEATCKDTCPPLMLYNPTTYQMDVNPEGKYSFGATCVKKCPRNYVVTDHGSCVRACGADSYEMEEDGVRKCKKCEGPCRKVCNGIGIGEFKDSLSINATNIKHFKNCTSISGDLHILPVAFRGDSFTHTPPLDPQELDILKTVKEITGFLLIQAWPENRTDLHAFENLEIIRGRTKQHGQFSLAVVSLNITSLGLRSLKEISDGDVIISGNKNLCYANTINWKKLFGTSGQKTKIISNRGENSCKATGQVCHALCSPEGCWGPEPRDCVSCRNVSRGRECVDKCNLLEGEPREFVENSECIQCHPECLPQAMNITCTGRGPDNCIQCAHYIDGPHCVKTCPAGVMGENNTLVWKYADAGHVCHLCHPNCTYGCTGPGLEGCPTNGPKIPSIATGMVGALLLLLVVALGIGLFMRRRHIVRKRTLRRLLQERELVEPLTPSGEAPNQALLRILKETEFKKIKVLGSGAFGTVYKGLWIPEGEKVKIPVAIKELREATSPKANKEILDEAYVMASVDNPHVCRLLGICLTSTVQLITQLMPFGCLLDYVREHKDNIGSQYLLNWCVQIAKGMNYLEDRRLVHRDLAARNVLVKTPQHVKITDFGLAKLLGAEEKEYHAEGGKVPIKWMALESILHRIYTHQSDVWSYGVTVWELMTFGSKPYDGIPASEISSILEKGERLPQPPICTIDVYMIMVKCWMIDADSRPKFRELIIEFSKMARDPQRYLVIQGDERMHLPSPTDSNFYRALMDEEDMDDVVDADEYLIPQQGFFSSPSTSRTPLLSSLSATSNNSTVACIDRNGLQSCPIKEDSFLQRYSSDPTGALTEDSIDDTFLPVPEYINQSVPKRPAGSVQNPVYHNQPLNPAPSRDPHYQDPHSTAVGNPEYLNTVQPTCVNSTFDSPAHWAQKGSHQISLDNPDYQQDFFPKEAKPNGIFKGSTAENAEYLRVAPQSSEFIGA
T1 sequence (P04626 23-1255): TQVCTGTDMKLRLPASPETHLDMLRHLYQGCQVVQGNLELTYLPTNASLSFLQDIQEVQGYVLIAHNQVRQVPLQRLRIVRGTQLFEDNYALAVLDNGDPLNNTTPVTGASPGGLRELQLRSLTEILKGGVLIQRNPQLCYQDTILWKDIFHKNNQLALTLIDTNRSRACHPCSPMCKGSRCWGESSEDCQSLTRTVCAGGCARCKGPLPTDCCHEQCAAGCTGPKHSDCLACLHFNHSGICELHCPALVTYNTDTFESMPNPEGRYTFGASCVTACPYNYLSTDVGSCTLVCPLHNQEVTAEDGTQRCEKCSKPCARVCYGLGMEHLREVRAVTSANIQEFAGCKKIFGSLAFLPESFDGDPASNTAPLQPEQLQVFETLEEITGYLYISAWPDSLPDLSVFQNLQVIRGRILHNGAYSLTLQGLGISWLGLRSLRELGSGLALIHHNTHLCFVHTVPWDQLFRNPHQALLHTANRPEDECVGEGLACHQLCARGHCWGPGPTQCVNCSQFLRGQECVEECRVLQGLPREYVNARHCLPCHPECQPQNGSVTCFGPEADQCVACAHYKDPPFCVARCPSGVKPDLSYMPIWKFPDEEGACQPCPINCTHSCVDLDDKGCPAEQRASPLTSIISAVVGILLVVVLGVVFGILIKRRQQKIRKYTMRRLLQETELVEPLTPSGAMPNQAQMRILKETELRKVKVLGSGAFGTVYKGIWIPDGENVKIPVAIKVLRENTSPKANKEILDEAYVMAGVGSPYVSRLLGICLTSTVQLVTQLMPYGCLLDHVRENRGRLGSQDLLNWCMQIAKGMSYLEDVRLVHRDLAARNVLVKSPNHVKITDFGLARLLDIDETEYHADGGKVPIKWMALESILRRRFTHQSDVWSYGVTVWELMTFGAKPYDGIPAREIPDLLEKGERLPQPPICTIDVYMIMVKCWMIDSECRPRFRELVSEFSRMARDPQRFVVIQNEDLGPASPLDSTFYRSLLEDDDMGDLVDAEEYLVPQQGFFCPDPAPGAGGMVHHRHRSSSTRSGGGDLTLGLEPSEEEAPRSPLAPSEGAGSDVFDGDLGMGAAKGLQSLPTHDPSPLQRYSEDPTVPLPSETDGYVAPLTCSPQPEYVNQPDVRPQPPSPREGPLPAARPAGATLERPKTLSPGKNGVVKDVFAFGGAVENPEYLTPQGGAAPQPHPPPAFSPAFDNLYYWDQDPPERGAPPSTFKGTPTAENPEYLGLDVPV

As to `[2H]C([2H])([2H])Oc1c(NC(=O)/C=C/[C@H]2CCCN2C(C)C)ccc2ncnc(Nc3ccc(OCc4ccccn4)c(Cl)c3)c12` [Example 35, (R,E)-N-(4-((3-chloro-4-(pyridin-2-ylmethoxy)phenyl)amino)-5-(methoxy-d3)quinazolin-6-yl)-3-(1-isopropylpyrrolidin-2-yl)acrylamide], the figures for the IC50 in test [1] and in test [2] were less than 10 nM and 10 to 100 nM, respectively. The GI50 in test [3] was in the range of 1 to 5 nM.

For the compound `CCOc1c(NC(=O)/C=C/[C@H]2CCCN2C)ccc2ncnc(Nc3ccc(OCc4cccc(C)n4)c(Cl)c3)c12` [Example 22, (R,E)-N-(4-((3-chloro-4-((6-methylpyridin-2-yl)methoxy)phenyl)amino)-5-ethoxyquinazolin-6-yl)-3-(1-methylpyrrolidin-2-yl)acrylamide], the IC50 in test [1] and in test [2] was less than 10 nM each time. The GI50 in test [3] lay in the range of 1 to 5 nM.

In the case of `COCCCCOc1c(NC(=O)/C=C/[C@H]2CCCN2C)ccc2ncnc(Nc3ccc(OCc4ccccn4)c(Cl)c3)c12` [Example 23, (R,E)-N-(4-((3-chloro-4-(pyridin-2-ylmethoxy)phenyl)amino)-5-(4-methoxybutoxy)quinazolin-6-yl)-3-(1-methylpyrrolidin-2-yl)acrylamide], the IC50 is less than 10 nM in test [1] and 100 to 1000 nM in test [2]. Further, in test [3], the GI50 was 1 to 5 nM.

On to `CN1CCC[C@@H]1/C=C/C(=O)Nc1ccc2ncnc(Nc3ccc(OCc4ccccn4)c(Cl)c3)c2c1OC1CCOC1` (stereo partly drawn) [Example 40, (E)-N-(4-((3-chloro-4-(pyridin-2-ylmethoxy)phenyl)amino)-5-((tetrahydrofuran-3-yl)oxy)quinazolin-6-yl)-3-((R)-1-methylpyrrolidin-2-yl)acrylamide], for which the IC50 in test [1] and in test [2] was less than 10 nM each time. Also, the GI50 in test [3] lay within 1 to 5 nM.

Consider `CN1CCC[C@@H]1/C=C/C(=O)Nc1ccc2ncnc(Nc3ccc(Oc4ccccc4)cc3)c2c1OCCO` [Example 31, (R,E)-N-(5-(2-hydroxyethoxy)-4-((4-phenyloxyphenyl)amino)quinazolin-6-yl)-3-(1-methylpyrrolidin-2-yl)acrylamide], for which the IC50 in test [1] and in test [2] was less than 10 nM throughout. In addition, in test [3], the GI50 was 1 to 5 nM.

As for `COc1c(NC(=O)/C=C/[C@H]2CCCN2C)ccc2ncnc(Nc3ccc(OCc4ccccn4)c(F)c3)c12` [Example 30, (R,E)-N-(4-((3-fluoro-4-(pyridin-2-ylmethoxy)phenyl)amino)-5-methoxyquinazolin-6-yl)-3-(1-methylpyrrolidin-2-yl)acrylamide], the IC50 in test [1] and in test [2] was less than 10 nM in each case. For the same compound, the GI50 in test [3] lay in the range of 1 to 5 nM.

`CN1CCC[C@@H]1/C=C/C(=O)Nc1ccc2ncnc(Nc3ccc(OCc4ccccn4)c(Cl)c3)c2c1OCCC(F)(F)F` [Example 12, (R,E)-N-(4-((3-chloro-4-(pyridin-2-ylmethoxy)phenyl)amino)-5-(3,3,3-trifluoropropoxy)quinazolin-6-yl)-3-(1-methylpyrrolidin-2-yl)acrylamide]: the IC50 in test [1] and in test [2] was less than 10 nM in each case. For the same compound, the GI50 in test [3] is 1 to 5 nM.

On to `CN1CCC[C@@H]1/C=C/C(=O)Nc1ccc2ncnc(Nc3ccc(OCc4ccccn4)c(Cl)c3)c2c1OCCF` [Example 7, (R,E)-N-(4-((3-chloro-4-(pyridin-2-ylmethoxy)phenyl)amino)-5-(2-fluoroethoxy)quinazolin-6-yl)-3-(1-methylpyrrolidin-2-yl)acrylamide], for which the concentration for half-maximal inhibition (IC50) in test [1] and in test [2] was less than 10 nM each time. For the same compound, in test [3], the GI50 fell in the range of 1 to 5 nM.

As to `COc1cccc(COc2ccc(Nc3ncnc4ccc(NC(=O)/C=C/[C@H]5CCCN5C)c(OC)c34)cc2Cl)n1` [Example 27, (R,E)-N-(4-((3-chloro-4-((6-methoxypyridin-2-yl)methoxy)phenyl)amino)-5-methoxyquinazolin-6-yl)-3-(1-methylpyrrolidin-2-yl)acrylamide], the IC50 is less than 10 nM in test [1] and 10 to 100 nM in test [2]. The GI50 in test [3] lay within 1 to 5 nM.

Usually IC50 stands for the point on the concentration scale where inhibition reaches its midpoint. The low end stands for greater potency in that assay, the high end for weaker potency in that assay.
